# Measurements as given in patent US12139520B2 (priority 2020, dated 2024).
# Bridge positions count the residues as written; N and C are the ends. Square brackets hold non-standard residues; d marks the D form. Peptide text beside a SMILES is read from it. Hyp = O=C(O)[C@@H]1C[C@@H](O)CN1; Cit = NC(=O)NCCC[C@H](N)C(=O)O
# Legend:
# [1] = Physical stability of peptide analogues (Thioflavin T fibrillation); type: physicochemical; conditions: maximum ThT signal normalized between hAMY maximum and buffer background; 40° C., shaking, four days; pH 7 per table title
# Procedure, shortened: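 ThT fluorescence (450 nm excitation, 480 nm emission; 4 μM dye) was read every 10 min over four days at 40° C under 700 rpm shaking stress, after 1 h in pH 4 acetate or pH 7 phosphate (50 mM). Peak smoothed signal expressed as percent, scaled between buffer background and hAMY maximum.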
# hAM1 receptor = hAM1 receptor (Homo sapiens, UniProt O60895+Q16602); experiment: cAMP assay for in vitro receptor activation, hAM1-R; type: cell-based; conditions: cAMP assay, hAM1 receptor; read-out: hAM1R EC50
# Sequence of hAM1 receptor (Q16602 23-461): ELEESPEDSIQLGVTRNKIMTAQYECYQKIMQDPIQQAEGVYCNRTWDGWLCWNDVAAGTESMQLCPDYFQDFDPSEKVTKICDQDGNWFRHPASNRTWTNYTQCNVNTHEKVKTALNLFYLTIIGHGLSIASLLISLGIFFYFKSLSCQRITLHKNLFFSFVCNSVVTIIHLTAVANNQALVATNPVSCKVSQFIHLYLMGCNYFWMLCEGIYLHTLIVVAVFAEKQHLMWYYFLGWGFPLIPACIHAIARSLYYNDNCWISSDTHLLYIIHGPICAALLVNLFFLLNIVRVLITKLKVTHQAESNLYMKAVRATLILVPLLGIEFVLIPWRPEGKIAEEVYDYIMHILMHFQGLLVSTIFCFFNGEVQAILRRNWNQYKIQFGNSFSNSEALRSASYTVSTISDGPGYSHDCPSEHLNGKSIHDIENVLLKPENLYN
# Sequence of hAM1 receptor (O60895 43-175 partner): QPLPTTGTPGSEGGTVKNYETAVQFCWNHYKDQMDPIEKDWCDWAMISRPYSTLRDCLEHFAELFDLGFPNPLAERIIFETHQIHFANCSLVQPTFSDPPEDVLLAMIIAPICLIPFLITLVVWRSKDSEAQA
# Procedure, shortened: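 Monoclonal stable hAM1-overexpressing cells, thawed from frozen stock; 8000 cells/well in DPBS + 0.05% casein + 0.5 mM IBMX; read-out cAMP.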
Max ThT signal (%) [1] [%],EC50 (hAM1 receptor) [µM],SMILES
2.500,0.13,CC[C@H](C)[C@H](NC(=O)[C@H](CCCCN)NC(=O)[C@@H](NC(=O)[C@H](CCCNC(=N)N)NC(=O)[C@@H]1CCCN1C(=O)[C@H](C)NC(=O)[C@@H](NC(=O)[C@H](CC(N)=O)NC(=O)[C@H](CC(=O)O)NC(=O)[C@H](CCCCN)NC(=O)[C@H](CC(=O)O)NC(=O)[C@H](CCCCN)NC(=O)[C@H](CC(=O)O)NC(=O)[C@@H](NC(=O)[C@H](Cc1ccccc1)NC(=O)[C@H](CCC(N)=O)NC(=O)[C@H](Cc1ccc(O)cc1)NC(=O)[C@@H](NC(=O)[C@H](CCC(N)=O)NC(=O)[C@H](Cc1c[nH]cn1)NC(=O)[C@H](C)NC(=O)[C@H](CC(C)C)NC(=O)[C@H](CCCNC(=N)N)NC(=O)[C@H](CCC(N)=O)NC(=O)[C@@H](NC(=O)[C@@H](NC(=O)[C@@H]1CSSC[C@H](NC(=O)CN)C(=O)N[C@@H](CCCNC(=N)N)C(=O)N[C@@H]([C@@H](C)O)C(=O)NCC(=O)N[C@@H]([C@@H](C)O)C(=O)N1)[C@@H](C)O)C(C)C)[C@@H](C)CC)[C@@H](C)O)C(C)C)[C@@H](C)O)C(=O)NCC(=O)N1CCC[C@H]1C(=O)N[C@@H](CC(N)=O)C(=O)NCC(=O)N1C[C@H](O)C[C@H]1C(N)=O [compound 115] (H-GCRTGTCTVQRLAHQIYQFTDKDKDNVAPRTKIGPNG[Hyp]-NH2; disulfide 2-7; N-terminus assumed)
31.250,> 5,CC[C@H](C)[C@H](NC(=O)[C@H](CCC(N)=O)NC(=O)[C@H](Cc1c[nH]cn1)NC(=O)[C@H](C)NC(=O)[C@H](CC(C)C)NC(=O)[C@H](CCCNC(N)=O)NC(=O)[C@H](CCC(N)=O)NC(=O)[C@@H](NC(=O)[C@@H](NC(=O)[C@@H]1CSSC[C@H](NC(=O)CN)C(=O)N[C@@H](CCCNC(=N)N)C(=O)N[C@@H]([C@@H](C)O)C(=O)NCC(=O)N[C@@H]([C@@H](C)O)C(=O)N1)[C@@H](C)O)C(C)C)C(=O)N[C@@H](Cc1ccc(O)cc1)C(=O)N[C@@H](CCC(N)=O)C(=O)N[C@@H](Cc1ccccc1)C(=O)N[C@H](C(=O)N[C@@H](CC(=O)O)C(=O)N[C@@H](CCCCN)C(=O)N[C@@H](CC(=O)O)C(=O)N[C@@H](CCCCN)C(=O)N[C@@H](CC(=O)O)C(=O)N[C@@H](CC(N)=O)C(=O)N[C@H](C(=O)N[C@@H](C)C(=O)N1CCC[C@H]1C(=O)N[C@@H](CCCNC(=N)N)C(=O)N[C@H](C(=O)N[C@@H](CCCCN)C(=O)N[C@H](C(=O)NCC(=O)N1CCC[C@H]1C(=O)N[C@@H](CCC(N)=O)C(=O)NCC(=O)N[C@@H](Cc1ccc(O)cc1)C(N)=O)C(C)C)[C@@H](C)O)C(C)C)[C@@H](C)O [compound 298] (H-GCRTGTCTVQ[Cit]LAHQIYQFTDKDKDNVAPRTKVGPQGY-NH2; disulfide 2-7; N-terminus assumed)
20.350,> 5,CC[C@H](C)[C@H](NC(=O)[C@H](CC(N)=O)NC(=O)[C@H](CO)NC(=O)[C@H](CCCNC(=N)N)NC(=O)[C@@H]1CCCN1C(=O)[C@H](C)NC(=O)[C@@H](NC(=O)[C@H](CC(N)=O)NC(=O)[C@H](CC(=O)O)NC(=O)[C@H](CCCCN)NC(=O)[C@H](CC(=O)O)NC(=O)[C@H](CCCCN)NC(=O)[C@H](CC(=O)O)NC(=O)[C@@H](NC(=O)[C@H](Cc1ccccc1)NC(=O)[C@H](CCC(N)=O)NC(=O)[C@H](Cc1ccc(O)cc1)NC(=O)[C@@H](NC(=O)[C@H](CCC(N)=O)NC(=O)[C@H](Cc1c[nH]cn1)NC(=O)[C@H](C)NC(=O)[C@H](CC(C)C)NC(=O)[C@H](Cc1c[nH]c2ccccc12)NC(=O)[C@H](CCC(N)=O)NC(=O)[C@@H](NC(=O)[C@@H](NC(=O)[C@@H]1CSSC[C@H](NC(=O)CN)C(=O)N[C@@H](CCCNC(=N)N)C(=O)N[C@@H]([C@@H](C)O)C(=O)NCC(=O)N[C@@H]([C@@H](C)O)C(=O)N1)[C@@H](C)O)C(C)C)[C@@H](C)CC)[C@@H](C)O)C(C)C)C(=O)NCC(=O)N1CCC[C@H]1C(=O)N[C@@H](CCC(N)=O)C(=O)NCC(=O)N1C[C@H](O)C[C@H]1C(N)=O [compound 359] (H-GCRTGTCTVQWLAHQIYQFTDKDKDNVAPRSNIGPQG[Hyp]-NH2; disulfide 2-7; N-terminus assumed)
1.100,> 5,CC[C@H](C)[C@H](NC(=O)[C@H](CCC(N)=O)NC(=O)[C@H](Cc1c[nH]cn1)NC(=O)[C@H](C)NC(=O)[C@H](CC(C)C)NC(=O)[C@H](CCCNC(=N)N)NC(=O)[C@H](CCC(N)=O)NC(=O)[C@@H](NC(=O)[C@@H](NC(=O)[C@@H]1CSSC[C@H](NC(=O)CN)C(=O)N[C@@H](CCCNC(=N)N)C(=O)N[C@@H]([C@@H](C)O)C(=O)NCC(=O)N[C@@H]([C@@H](C)O)C(=O)N1)[C@@H](C)O)C(C)C)C(=O)N[C@@H](Cc1ccc(O)cc1)C(=O)N[C@@H](CCC(N)=O)C(=O)N[C@@H](Cc1ccccc1)C(=O)N[C@H](C(=O)N[C@@H](CC(N)=O)C(=O)N[C@@H](CCCCN)C(=O)N[C@@H](CC(=O)O)C(=O)N[C@@H](CCCCN)C(=O)N[C@@H](CC(=O)O)C(=O)N[C@@H](CC(N)=O)C(=O)N[C@H](C(=O)N[C@@H](C)C(=O)N1CCC[C@H]1C(=O)N[C@@H](CCCNC(=N)N)C(=O)N[C@@H](CO)C(=O)N[C@@H](CCCCN)C(=O)N[C@H](C(=O)N[C@@H](CO)C(=O)N1CCC[C@H]1C(=O)N[C@@H](CCC(N)=O)C(=O)N[C@@H](Cc1c[nH]c2ccccc12)C(=O)N1C[C@H](O)C[C@H]1C(N)=O)[C@@H](C)CC)C(C)C)[C@@H](C)O [compound 220] (H-GCRTGTCTVQRLAHQIYQFTNKDKDNVAPRSKISPQW[Hyp]-NH2; disulfide 2-7)
21.700,> 5,CC[C@H](C)[C@H](NC(=O)[C@H](CCC(N)=O)NC(=O)[C@H](CCC(=O)O)NC(=O)[C@H](C)NC(=O)[C@H](CC(C)C)NC(=O)[C@H](Cc1c[nH]c2ccccc12)NC(=O)[C@H](CCC(N)=O)NC(=O)[C@@H](NC(=O)[C@@H](NC(=O)[C@@H]1CSSC[C@H](NC(=O)[C@@H](N)CCCCN)C(=O)N[C@@H](CC(N)=O)C(=O)N[C@@H]([C@@H](C)O)C(=O)N[C@@H](C)C(=O)N[C@@H]([C@@H](C)O)C(=O)N1)[C@@H](C)O)C(C)C)C(=O)N[C@@H](Cc1ccc(O)cc1)C(=O)N[C@@H](CCC(N)=O)C(=O)N[C@@H](Cc1ccccc1)C(=O)N[C@H](C(=O)N[C@@H](CC(=O)O)C(=O)N[C@@H](CCCCN)C(=O)N[C@@H](CC(=O)O)C(=O)N[C@@H](CCCCN)C(=O)N[C@@H](CC(=O)O)C(=O)N[C@@H](CC(N)=O)C(=O)N[C@H](C(=O)N[C@@H](C)C(=O)N1CCC[C@H]1C(=O)N1CCC[C@H]1C(=O)N[C@@H](Cc1ccc(O)cc1)C(=O)N[C@@H](CC(N)=O)C(=O)N[C@@H](CCC(=O)O)C(=O)NCC(=O)N[C@@H](CO)C(=O)N[C@@H](CC(N)=O)C(=O)NCC(=O)N1C[C@H](O)C[C@H]1C(N)=O)C(C)C)[C@@H](C)O [compound 321] (H-KCNTATCTVQWLAEQIYQFTDKDKDNVAPPYNEGSNG[Hyp]-NH2; disulfide 2-7; N-terminus assumed)
0.600,> 5,CC[C@H](C)[C@H](NC(=O)[C@H](CCC(N)=O)NC(=O)[C@H](Cc1c[nH]cn1)NC(=O)[C@H](C)NC(=O)[C@H](CC(C)C)NC(=O)[C@H](CCCNC(=N)N)NC(=O)[C@H](CCC(N)=O)NC(=O)[C@@H](NC(=O)[C@@H](NC(=O)[C@@H]1CSSC[C@H](NC(=O)CN)C(=O)N[C@@H](CCCNC(=N)N)C(=O)N[C@@H]([C@@H](C)O)C(=O)NCC(=O)N[C@@H]([C@@H](C)O)C(=O)N1)[C@@H](C)O)C(C)C)C(=O)N[C@@H](Cc1ccc(O)cc1)C(=O)N[C@@H](CCC(N)=O)C(=O)N[C@@H](Cc1ccccc1)C(=O)N[C@H](C(=O)N[C@@H](CC(=O)O)C(=O)N[C@@H](CCCCN)C(=O)N[C@@H](Cc1ccccc1)C(=O)N[C@@H](CCCCN)C(=O)N[C@@H](CC(=O)O)C(=O)N[C@@H](CC(N)=O)C(=O)N[C@H](C(=O)N[C@@H](C)C(=O)N1CCC[C@H]1C(=O)N[C@@H](CCCNC(=N)N)C(=O)N[C@@H](CO)C(=O)N[C@@H](CCCCN)C(=O)N[C@H](C(=O)N[C@@H](CO)C(=O)N1CCC[C@H]1C(=O)N[C@@H](CCC(N)=O)C(=O)N[C@H](C(=O)N[C@@H](Cc1ccc(O)cc1)C(N)=O)[C@@H](C)O)[C@@H](C)CC)C(C)C)[C@@H](C)O [compound 230] (H-GCRTGTCTVQRLAHQIYQFTDKFKDNVAPRSKISPQTY-NH2; disulfide 2-7; N-terminus assumed)
0.600,> 5,CC[C@H](C)[C@H](NC(=O)[C@H](CCC(N)=O)NC(=O)[C@H](Cc1c[nH]cn1)NC(=O)[C@H](C)NC(=O)[C@H](CC(C)C)NC(=O)[C@H](CCCNC(=N)N)NC(=O)[C@H](CCC(N)=O)NC(=O)[C@@H](NC(=O)[C@@H](NC(=O)[C@@H]1CSSC[C@H](NC(=O)CN)C(=O)N[C@@H](CCCNC(=N)N)C(=O)N[C@@H]([C@@H](C)O)C(=O)NCC(=O)N[C@@H]([C@@H](C)O)C(=O)N1)[C@@H](C)O)C(C)C)C(=O)N[C@@H](Cc1ccc(O)cc1)C(=O)N[C@@H](CCC(N)=O)C(=O)N[C@@H](Cc1ccccc1)C(=O)N[C@H](C(=O)N[C@@H](CC(=O)O)C(=O)N[C@@H](CCCCN)C(=O)N[C@@H](Cc1ccccc1)C(=O)N[C@@H](CCCCN)C(=O)N[C@@H](CC(=O)O)C(=O)N[C@@H](CC(N)=O)C(=O)N[C@H](C(=O)N[C@@H](C)C(=O)N1CCC[C@H]1C(=O)N[C@@H](CCCNC(=N)N)C(=O)N[C@@H](CO)C(=O)N[C@@H](CCCCN)C(=O)N[C@H](C(=O)N[C@@H](CO)C(=O)N1CCC[C@H]1C(=O)N[C@@H](CCC(N)=O)C(=O)N[C@H](C(=O)N[C@@H](CCSC)C(N)=O)[C@@H](C)O)[C@@H](C)CC)C(C)C)[C@@H](C)O [compound 215] (H-GCRTGTCTVQRLAHQIYQFTDKFKDNVAPRSKISPQTM-NH2; disulfide 2-7)
